In patent publication US6737383B1, “Herbicidal oxadiazolidines” (priority 1999, dated 2004):

Columns and labels:
bamyardgrass = experiment: Test B flood test barnyardgrass; format: in vivo, Echinochloa crus-galli
In short: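 Plants were grown to the 2-leaf stage before treatment with test chemical, then held in a greenhouse for twelve to sixteen days. Injury was visually rated against untreated controls on a 0–10 scale, where 0 is no effect and 10 is complete control.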

morningglory = experiment: Test B pre/postemergence morningglory; format: in vivo, Ipomoea hederacea; conditions: for Morningglory plant response rating (0 to 10 scale): 0 is no effect
In short: (§1)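 Herbicidal effect was estimated by eye on a ten-point control scale after plants spent twelve to sixteen days in a greenhouse following soil or foliar treatment. Foliar sprays targeted plants at one to four leaves; all doses were formulated in a non-phytotoxic solvent with surfactant.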

giant foxtail = experiment: Test B pre/postemergence giant foxtail; format: in vivo, Setaria faberii; conditions: for Giant foxtail plant response rating (0 to 10 scale): 0 is no effect
In short: as §1

cocklebur = experiment: Test B pre/postemergence cocklebur; format: in vivo, Xanthium strumarium; conditions: for Cocklebur plant response rating (0 to 10 scale): 0 is no effect
In short: as §1

[1] = Postemergence, Rate 62 g/ha, scale 0 to 10, 0 is no effect, 10 is complete control
[2] = Rate 125 g/ha, Postemergence section (flood test species), scale 0 to 10, 0 no effect, 10 complete control
[3] = Rate 500 g/ha, listed under Postemergence (flood test species), scale 0 to 10, 0 no effect, 10 complete control
[4] = flood test, listed under Postemergence, Rate 250 g/ha, scale 0 to 10, 0 no effect, 10 complete control
[5] = Postemergence, Rate 125 g/ha, scale of 0 to 10 where 0 is no effect and 10 is complete control
[6] = Postemergence, Rate 250 g/ha, scale 0 to 10, 0 no effect, 10 complete control
[7] = Preemergence, Rate 62 g/ha, scale 0 to 10 (0 no effect, 10 complete control)
[8] = Preemergence, Rate 125 g/ha, scale 0 to 10 (0 no effect, 10 complete control)
[9] = Preemergence, Rate 250 g/ha, scale of 0 to 10 where 0 is no effect and 10 is complete control
[10] = Preemergence, Rate 500 g/ha, scale 0 (no effect) to 10 (complete control)
[11] = Rate 500 g/ha, Postemergence, scale 0 to 10, 0 no effect, 10 complete control
[12] = Postemergence, Rate 1000 g/ha, scale 0 to 10 (0 no effect, 10 complete control)
[13] = Rate 62 g/ha, Postemergence, scale of 0 to 10 where 0 is no effect and 10 is complete control
[14] = Rate 1000 g/ha, Preemergence, scale 0 to 10 (0 no effect, 10 complete control)
[15] = Preemergence, Rate 500 g/ha, scale 0 to 10 (0 no effect, 10 complete control)
[16] = Postemergence (flood test species), Rate 125 g/ha, scale of 0 to 10 where 0 is no effect and 10 is complete control
[17] = Rate 250 g/ha, Postemergence (flood test), scale 0 to 10, 0 is no effect, 10 is complete control
[18] = Preemergence, Rate 125 g/ha, 10 is complete control
[19] = Preemergence, Rate 250 g/ha, scale 0 to 10, 0 is no effect, 10 is complete control
[20] = Rate 250 g/ha, Postemergence, scale 0 to 10, 0 is no effect, 10 is complete control
[21] = Rate 500 g/ha, Postemergence, scale 0 to 10
[22] = Preemergence, Rate 31 g/ha, visual rating, scale 0 to 10 (0 no effect, 10 complete control)
[23] = Rate 31 g/ha, Postemergence, scale 0 to 10

Row | SMILES | Barnyardgrass plant response rating (bamyardgrass; [1]) | Barnyardgrass plant response rating (bamyardgrass; [2]) | Barnyardgrass plant response rating (bamyardgrass; [3]) | Barnyardgrass plant response rating (bamyardgrass; [4]) | Morningglory plant response rating (morningglory; [5]) | Morningglory plant response rating (morningglory; [6]) | Morningglory plant response rating (morningglory; [7]) | Plant response rating, Morningglory (morningglory; [8]) | Plant response rating, Morningglory (morningglory; [9]) | Morningglory plant response rating (morningglory; [11]) | Giant foxtail plant response rating (giant foxtail; [5]) | Giant foxtail plant response rating (giant foxtail; [6]) | Giant foxtail plant response rating (giant foxtail; [7]) | Plant response rating, Giant foxtail (giant foxtail; [8]) | Plant response rating, Giant foxtail (giant foxtail; [9]) | Cocklebur plant response rating (cocklebur; [5]) | Cocklebur plant response rating (cocklebur; [7]) | Morningglory plant response rating (morningglory; [13]) | Giant foxtail plant response rating (giant foxtail; [13]) | Cocklebur plant response rating (cocklebur; [13]) | further results
1 | CCN(CC)C(=O)n1oc(=O)n(-c2cccc3c2CCCC3)c1=O [Compound 89] | 0 | 0 | 0 | 0 | 0 | 0 | 0 | 0 | 0 | 2 | 0 | 0 | 0 | 0 | 0 | 1 | 0 | – | – | – | Morningglory plant response rating (morningglory; [1]): 0; Morningglory plant response rating (morningglory; [10]): 0; Giant foxtail plant response rating (giant foxtail; [1]): 0; Giant foxtail plant response rating (giant foxtail; [10]): 2; Giant foxtail plant response rating (giant foxtail; [11]): 2; Cocklebur plant response rating (cocklebur; [1]): 1; Cocklebur plant response rating (cocklebur; [6]): 2; Plant response rating, Cocklebur (cocklebur; [8]): 0; Plant response rating, Cocklebur (cocklebur; [9]): 0; Cocklebur plant response rating (cocklebur; [10]): 0; Cocklebur plant response rating (cocklebur; [11]): 2
2 | CC(C)N(C(=O)n1oc(=O)n(C2CCCCC2C(F)(F)F)c1=O)c1ccc(F)cc1 (stereo not drawn) [Compound 99] | 0 | 0 | 5 | 0 | 3 | 3 | 0 | 0 | 0 | 5 | 0 | 2 | – | 10 | 10 | 2 | 0 | 1 | 0 | 0 | Barnyardgrass plant response rating (bamyardgrass; [12]): 8; Morningglory plant response rating (morningglory; [12]): 9; Morningglory plant response rating (morningglory; [10]): 0; Plant response rating, Morningglory (morningglory; [14]): 3; Giant foxtail plant response rating (giant foxtail; [12]): 2; Giant foxtail plant response rating (giant foxtail; [10]): 10; Giant foxtail plant response rating (giant foxtail; [11]): 7; Plant response rating, Giant foxtail (giant foxtail; [14]): 10; Cocklebur plant response rating (cocklebur; [6]): 2; Cocklebur plant response rating (cocklebur; [12]): 4; Plant response rating, Cocklebur (cocklebur; [8]): 0; Plant response rating, Cocklebur (cocklebur; [9]): 0; Cocklebur plant response rating (cocklebur; [10]): 0; Cocklebur plant response rating (cocklebur; [11]): 3; Plant response rating, Cocklebur (cocklebur; [14]): 7
3 | CCc1noc(CC)c1-n1c(=O)on(C(=O)N(c2ccc(F)cc2)C(C)C)c1=O [Compound 102] | 0 | 0 | 0 | 0 | 0 | 1 | 0 | 0 | 0 | 3 | 0 | 0 | 2 | 4 | 9 | 0 | 0 | 0 | 0 | 0 | Giant foxtail plant response rating (giant foxtail; [11]): 2; Cocklebur plant response rating (cocklebur; [6]): 0; Plant response rating, Cocklebur (cocklebur; [8]): 0; Plant response rating, Cocklebur (cocklebur; [9]): 0; Cocklebur plant response rating (cocklebur; [11]): 0
4 | Cc1nn(C)c(C)c1-n1c(=O)on(C(=O)N(c2ccccc2)C(C)C)c1=O [Compound 120] | 0 | 0 | 0 | 0 | 7 | 8 | 0 | 0 | 0 | 8 | 6 | 8 | 8 | 9 | 9 | 1 | 0 | 4 | 3 | 1 | Morningglory plant response rating (morningglory; [15]): 0; Giant foxtail plant response rating (giant foxtail; [15]): 10; Giant foxtail plant response rating (giant foxtail; [11]): 8; Cocklebur plant response rating (cocklebur; [6]): 3; Plant response rating, Cocklebur (cocklebur; [8]): 0; Plant response rating, Cocklebur (cocklebur; [9]): 0; Cocklebur plant response rating (cocklebur; [15]): 0; Cocklebur plant response rating (cocklebur; [11]): 4
5 | Cc1cnn(C)c1-n1c(=O)on(C(=O)N(c2ccc(F)cc2)C(C)C)c1=O [Compound 125] | 0 | – | 0 | – | 0 | – | 0 | – | – | – | 0 | – | 0 | – | – | 0 | 0 | 0 | 0 | 0 | Barnyardgrass plant response rating (bamyardgrass; [16]): 0; Plant response rating, Barnyardgrass (bamyardgrass; [17]): 0; Barnyardgrass plant response rating (bamyardgrass; Rate 250 g/ha, headed Pre-emergence (flood test species), scale 0 to 10 (0 no effect, 10 complete control)): 0; Plant response rating, Barnyardgrass (bamyardgrass; Rate 500 g/ha, headed Pre-emergence (flood test species), scale 0 to 10 (0 no effect, 10 complete control)): 0; Barnyardgrass plant response rating (bamyardgrass; Rate 1000 g/ha, Pre-emergence (as headed), scale 0 to 10): 0; Barnyardgrass plant response rating (bamyardgrass; Rate 2000 g/ha, Pre-emergence (as headed), scale 0 to 10, 0 no effect, 10 complete control): 0; Morningglory plant response rating (0 to 10 scale) (morningglory; [18]): 0; Morningglory plant response rating (morningglory; [19]): 0; Morningglory plant response rating (morningglory; [15]): 0; Plant response rating, Morningglory (morningglory; [20]): 2; Morningglory plant response rating (morningglory; [21]): 2; Giant foxtail plant response rating (0 to 10 scale) (giant foxtail; [18]): 0; Giant foxtail plant response rating (giant foxtail; [15]): 0; Plant response rating, Giant foxtail (giant foxtail; [20]): 0; Giant foxtail plant response rating (giant foxtail; [21]): 0; Cocklebur plant response rating (0 to 10 scale) (cocklebur; [18]): 0; Cocklebur plant response rating (cocklebur; [19]): 0; Cocklebur plant response rating (cocklebur; [15]): 0; Plant response rating, Cocklebur (cocklebur; [20]): 0; Cocklebur plant response rating (cocklebur; [21]): 0
6 | Cc1noc(C)c1-n1c(=O)on(C(=O)N(c2ccc(F)cc2)C(C)C)c1=O [Compound 155] | – | – | – | – | 0 | – | 0 | – | – | – | 3 | – | 0 | – | – | 0 | 0 | 0 | 1 | 0 | Barnyardgrass plant response rating (bamyardgrass; [16]): 0; Barnyardgrass plant response rating (bamyardgrass; Rate 31 g/ha, Postemergence section (flood test species), scale 0 to 10): 0; Barnyardgrass plant response rating (bamyardgrass; Rate 62 g/ha, Postemergence section, flood test species, scale of 0 to 10 where 0 is no effect and 10 is complete control): 0; Plant response rating, Barnyardgrass (bamyardgrass; [17]): 0; Morningglory plant response rating (morningglory; [22]): 0; Morningglory plant response rating (0 to 10 scale) (morningglory; [18]): 0; Morningglory plant response rating (morningglory; [19]): 0; Morningglory plant response rating (morningglory; [23]): 0; Plant response rating, Morningglory (morningglory; [20]): 2; Giant foxtail plant response rating (giant foxtail; [22]): 0; Giant foxtail plant response rating (0 to 10 scale) (giant foxtail; [18]): 0; Giant foxtail plant response rating (giant foxtail; [19]): 2; Giant foxtail plant response rating (giant foxtail; [23]): 0; Plant response rating, Giant foxtail (giant foxtail; [20]): 6; Cocklebur plant response rating (cocklebur; [22]): 0; Cocklebur plant response rating (0 to 10 scale) (cocklebur; [18]): 0; Cocklebur plant response rating (cocklebur; [19]): 0; Cocklebur plant response rating (cocklebur; [23]): 0; Plant response rating, Cocklebur (cocklebur; [20]): 0
